Assay results as given in patent US20200253929A1, “TREATMENT OF EPILEPSY” (priority 2017, published 2020).

Experiments:
NMRI mice = assay: Mouse 6-Hz (44 mA) psychomotor seizure model; assay type: in vivo; conditions: for mean seizure duration / mice protected against induced seizures: 30 min before electrical stimulation
Excerpt: Although the zebrafish model has a high degree of genetic, physiological and pharmacological conservation^13, it is more distinct from humans than mammals. Therefore, we were interested to see if the observed antiseizure properties of azaspirofuran A and pseurotin A2 would translate to a rodent model. The mouse 6-Hz (44 mA) psychomotor seizure model was chosen, because it can detect compounds with novel antiseizure mechanisms and with potential against drug-resistant seizures [Barton et al. (2001) Epilepsy Res 47, 217-227; Wilcox et al. (2013) Epilepsia 54 S4, 24-34]. In this model drug-resistant focal impaired awareness seizures [Fisher et al. (2017) Epilepsia 58, 531-542], previously referred to as complex partial or psychomotor seizures [Holcomb and Dean (2011) Psychomotor Seizures, In Encyclopedia of Child Behavior and Development (Goldstein, S., and Naglieri, J. A., Eds.), pp 1191-1192, Springer US, Boston, Mass.], are induced by low frequency, long duration corneal electrical stimulation (6 Hz, 0.2 ms rectangular pulse width, 3 s duration, 44 mA) and are characterized by stun, twitching of the vibrissae, forelimb clonus, and Straub tail. […] Stimulated mice with a seizure duration shorter than 27 seconds were thus considered to be protected. […] Besides, this study provides another example of the translation of results from zebrafish to rodent seizure models.
Experimental procedure was described in Copmans et al. (2018) Neurochem. Int. 112, 124-133. before Buenafe et al. cited above; Orellana-Paucar cited above. In brief, NMRI mice (average weight 28 g, range 23-32 g) were randomly divided into control and treatment groups (n=5-10). 50 μL (injection volume was adjusted to the individual weight) of VHC (PEG200:DMSO:water; 0.25:0.25:0.5) or treatment (an ASD or test compound dissolved in VHC) was i.p. injected in mice and after 30 or 120 (in case of phenytoin, as reported by Barton et al. cited above) min psychomotor seizures were induced by low frequency, long duration corneal electrical stimulation (6 Hz, 0.2 ms rectangular pulse width, 3 s duration, 44 mA) using an ECT Unit 5780 (Ugo Basile, Comerio, Italy). Mice were manually restrained and a drop of ocular anesthetic (0.5% lidocaine) was applied to the corneas before stimulation. Following electrical current stimulation, the mouse was released in a transparent cage for behavioral observation, which was video-recorded. […] In addition, facial and mouth jerking as well as head nodding were observed occasionally. Mice displaying normal exploratory and locomotion behavior within a time period of 26 seconds were considered to be protected against the induced psychomotor seizures. Seizure durations were measured during the experiment by experienced researchers, familiar with the different seizure behaviors. In addition, seizure durations were determined by blinded video analysis to confirm or correct the initial observations. Data are expressed as mean±SD.

[1] = tested on: PTZ-induced seizures in zebrafish larvae; assay: Zebrafish PTZ seizure model, behavioral analysis; assay type: in vivo, Danio rerio; conditions: for PTZ-induced seizures (seizure-like behavior): vs VHC+PTZ
Experimental: To investigate whether the isolated compounds display antiseizure activity, they were tested in the zebrafish PTZ seizure model after both an acute (2 hours) and chronic (18 hours) incubation time at their maximum tolerated concentration (MTC) (Table 1, FIG. 1).
In case no MTC was reached, 100 μg/mL was used as the test concentration. In line with studies previously reported [Baraban et al. (2005) Neurosci 131, 759-768; Afrikanova et al. (2013) PLoS One 8, e54166], addition of the GABAA-receptor antagonist PTZ to the swimming water of 7 days post-fertilization (dpf) zebrafish larvae strongly elevated larval locomotion (p≤0.001) (FIGS. 2 and 3) as a result of induced seizures (or seizure-like behavior) that were recognized as typical high-speed swimming, whirlpool-like circling, clonus-like seizures, and loss of posture, as previously described in Baraban et al cited above.
Experimental procedure was described in Afrikanova et al.(2013) PLoS One 8, e54166 and Orellana-Paucar et al. (2012) Epilepsy Behav 24, 14-22. In brief, a single 7 dpf larva (in case of 2 hours incubation) or 6 dpf larva (in case of 18 hours incubation) was placed in each well of a 96-well plate and treated with either VHC (1% DMSO) or compound (1% DMSO) in a 100 μL volume. Larvae were incubated in dark for 2 or 18 hours at 28° C., whereafter 100 μL of either VHC (embryo medium) or 40 mM PTZ (dissolved in embryo medium, 20 mM working concentration) was added to each well. Next, within 5 min the 96-well plate was placed in an automated tracking device (ZebraBox Viewpoint, France) and larval behavior was video recorded for 30 min. The complete procedure was performed in dark conditions using infrared light. Total locomotor activity was recorded by ZebraLab software (Viewpoint, France) and expressed in actinteg units, which is the sum of pixel changes detected during the defined time interval (5 min). Larval behavior was depicted as mean actinteg units/5 min during the 30 min recording period and over 5 min time intervals. Data are expressed as mean±SD or as mean ±SEM when the means of independent experiments were pooled.

[2] = Parallel artificial membrane permeability assay (PAMPA); assay type: in vitro ADME; conditions: for Permeability: 10 μM, 5 h, RT
Experimental: The Gentest Pre-coated PAMPA Plate System (Corning) was used to perform the permeability assays. The 96 well filter plate, pre-coated with lipids, was used as the permeation acceptor and a matching 96 well receiver plate was used as the permeation donor. Compound solutions were prepared by diluting 10 mM DMSO stock solutions in PBS with a final concentration at 10 μM. The compound solutions were added to the wells (300 μL/well) of the receiver plate and PBS was added to the wells (200 μL/well) of the pre-coated filter plate. The filter plate was then coupled with the receiver plate and the plate assembly was incubated at RT without agitation for 5 h. Next, the plates were separated and 50 μL solution from each well of both the filter plate and the receiver plate was transferred to a vial with 150 μL acetonitrile and centrifuged at 13300 rpm for 10 min at 4° C. The supernatant was diluted in a solution water/acetonitrile (50/50). The final concentration of compounds in both donor wells and acceptor wells was analyzed by LC-MS/MS. Permeability of the compounds was calculated using the following equation:
Permeability (cm/s): Pe={−ln[1−CA(t)/Ceq]}/[A*(1/VD+1/VA)*t]}
A=filter area (0.3 cm2), VD=donor well volume (0.3 mL), VA=acceptor well volume (0.2 mL), t=incubation time (s), CA(t)=compound concentration in acceptor well at time t, CD(t)=compound concentration in donor well at time t, and Ceq=[CD(t)*VD+CA(t)*VA]/(VD+VA)]

Structure (SMILES) | mean seizure duration (NMRI mice; 40 mg/kg i.p.) [s] | mice protected against induced seizures (NMRI mice; 40 mg/kg i.p.) | antiseizure activity (NMRI mice; 20 and 10 mg/kg i.p.) | PTZ-induced seizure behavior, concentration-response retest ([1]; at MTC, 2 hours incubation, 30 min recording, three independent experiments) | PTZ-induced seizures (seizure-like behavior) ([1]; at MTC, 2 hours of compound exposure) | Permeability, rating [2] | Permeability [2] [×10⁻⁶ cm/s] | antiseizure activity (NMRI mice; 2.5 mg/kg i.p.) | mean seizure duration (NMRI mice; 10 mg/kg i.p.) [s] | mice protected against induced seizures (NMRI mice; 10 mg/kg i.p.) | PTZ-induced seizure behavior, concentration-response retest ([1]; MTC, MTC/2, MTC/4, optimal incubation time, 30 min recording and 5 min intervals) | PTZ-induced seizures (seizure-like behavior) ([1]; at MTC, 18 hours of compound exposure)
CCc1ccc(C2=C(C)C(=O)C3(O2)C(=O)NC(OC)(C(=O)c2ccccc2)C3O)o1 (stereo not shown) [azaspirofuran A] | 24 | 5 out of 7 | no significant effects | lowered PTZ-induced seizure behavior to the same extent as before | significantly lowered PTZ-induced seizures | High | 18.64 | – | – | – | – | –
CC/C=C\[C@H](O)[C@H](O)C1=C(C)C(=O)[C@]2(O1)C(=O)N[C@](OC)(C(=O)c1ccccc1)[C@H]2O [pseurotin A2] | 26 | 4 out of 7 | – | – | – | Low | 0.05 | inactive | 27 | 5 out of 6 | concentration-dependent activity | significantly lowered PTZ-induced seizures
